A word on the % Inhibition: it is the change of the read-out against control, counted positive when it falls. Usually ED50 stands for the dose that gives a 50% effect, or the effect in half of the subjects.

The test system of assay [1] is reverse passive Arthus reaction. Briefly: Reverse Passive Arthus Reaction (inhibition of the inflammatory lesion area). Particulars: for % Inhibition of the Inflammatory Lesion Area: lesion excised 4 hours after Anti-B.S.A.
In a further assay the test system is mice. Kind of assay: Analgesic Activity - Mouse Writhing Method (0.5% acetic acid IP). Type of assay: in vivo. Particulars: for Ave. No. of Writhes/Mouse (±S.D.): 20 minute period, control saline 34.8 (8.8). As to the method:
Analgesic Activity of 10 (N-Methyl-4-Piperidylidene)-10H[1]-Benzopyrano[3,2-b]-Pyridine -- Mouse Writhing Method
Modified method of Whittle (Brit. J. Pharmacol. 1964, 22:246) -- Groups of 5 mice administered various dose-levels of the compound 30 minutes prior to the IP injection of 0.5% acetic acid (0.4 ml). Writhing counted for a 20 minute period following the acid injection.
For orientation: In writhing tests, fewer writhes than in controls are read as antinociception.

Assay [2] has as its system Carrageenin Induced Rat Paw Edema. Kind of assay: Carrageenin Induced Rat Paw Edema. Format: in vivo, male Sprague-Dawley rats. Particulars: for % INCREASE IN PAW SIZE OVER NORMAL: 3 hr. reading, 0.5% MC control 89.3%. As to the method: Carrageenin Induced Rat Paw Edema
The carrageenin induced rat paw edema test of Winter, et al. (Proc. Soc. Exp. Biol. and Med., 1962, 111:544) and modified by Van Arman, et al. (J. Pharmacol. Exp. Therap., 1965, 150:328) is used as a primary test for anti-inflammatory activity.
Groups of male Sprague-Dawley rats weighing 160-220 grams are used to compare various dose levels of the test compound to control animals. The compound is administered orally to the respective groups 1 hour prior to a sub-plantar injection into the left hind paw with 0.1 ml of a 1.5% suspension of carrageenin in saline. The paws are measured volumetrically by mercury displacement prior to (normal paw), 1.5, 3 and 5 hours after the carrageenin injection.
Activity is calculated as the percent difference (inhibition) between the increases in paw size (edema) of the test groups compared to the control groups.
On the technique in general: In the carrageenan paw model, swelling and tenderness develop within hours.

As to “10 (N-methyl-4-piperidylidene)-10H[1]-benzopyrano[3,2-b]-pyridine [A-45637]”, the “% Inhibition of the Inflammatory Lesion Area” value in assay [1] (0.75 mg/kg PO, rat) is on record as 43.2%; in assay [1] (1.5 mg/kg PO, rat), 64.4%; in assay [1] (2.5 mg/kg PO, rat), 70.9%; in assay [1] (5 mg/kg PO, rat), 81.2%; in assay [1] (10 mg/kg PO, rat), 82.9%. Also, the “Calculated ED50 value” in assay [1] (PO, rat, printed limits (.07, 1.5)) was 0.78 mg/kg. In addition, the “Ave. No. of Writhes/Mouse (±S.D.)” value is given as 31.4 (16.7) Writhes/Mouse in the assay on mice (10 mg/kg oral), 18.0 (8.3) Writhes/Mouse with mice (20 mg/kg oral), 15.8 (8.0) Writhes/Mouse in the assay with mice (40 mg/kg oral) and 6.6 (4.6) Writhes/Mouse with mice (80 mg/kg oral). In addition, the “% Inhibition” value came to 9.8% in the assay on mice (10 mg/kg oral, writhing, mice); 48.3% in the assay on mice (20 mg/kg oral, writhing, mice); 54.6% in the assay on mice (40 mg/kg oral, writhing, mice); 81.0% in the assay on mice (80 mg/kg oral, writhing, mice). The compound also showed an ED50 with mice (P.O., mice, writhing, 95% CL (10.9-98.0)) of 29.7 mg/kg. The “% INCREASE IN PAW SIZE OVER NORMAL” value in assay [2] (2 mg/kg oral) came to 66.9%; in assay [2] (4 mg/kg oral), 55.3%; in assay [2] (8 mg/kg oral), 50.0%; in assay [2] (16 mg/kg oral), 33.1%. The “% INHIBITION OF EDEMA (3 HR. READING)” value in assay [2] (2 mg/kg oral, rat) is 25.1%; in assay [2] (4 mg/kg oral, rat), 38.1%; in assay [2] (8 mg/kg oral, rat) it was 44.0%; in assay [2] (16 mg/kg oral, rat) it was 62.9%. The ED25 in assay [2] (oral, rat, carrageenin paw edema, limits in parentheses) is 2.04 (0.34, 3.55).

For the compound `CN(C)CCC(c1ccc(Cl)cc1)c1ccccn1` (racemic) [chlorpheninamine, reference compound], the “activity in the reverse passive Arthus reaction” value in assay [1] (10 mg/kg, P.O.) is “completely inactive”.

For `CN1CCC(=C2c3ccccc3C=Cc3ccccc32)CC1` [cyproheptadine, reference compound], in assay [1] (5 mg/kg P.O.), the “activity in the reverse passive Arthus reaction” value was “completely inactive”.

Values taken from patent US3966944A, “10 (N-methyl-4-piperidylidene)-10H[1]-benzopyrano[3,2-b]-pyridine as an analgesic, anti-inflammatory and agent against type III hypersensitivity disease” (Abbott Laboratories, priority 1975, dated 1976).
